Tests used:
[1] = test system: IL-12 induced STAT4 phophorylation mediated by Tyk2/JAK2 (heterodimeric complex); assay: IL-12 Induced pSTAT4 in Human PBMC; format: cell-based; details: for IC50: 1.7 ng/mL IL-12, read-out: PBMC_IL-12-pSTAT4 (IC50); for inhibition at 0.05 µM: Homo sapiens, PBMC, 1.7 ng/mL IL-12, read-out: PBMC_IL-12-pSTAT4 (% Inhibition_Average_@0.05 uM) [%]
Method: Human PBMC are isolated from buffy coat and are stored frozen for assays as needed. […] 15 μl of compound or DMSO is added to the well at the desired concentrations and incubated at 1 hr at 37° C. 15 μl of stimulus (final concentration of 1.7 ng/mL IL-12) is added for 30 minutes prior to pSTAT4 and total STAT4 analysis using cell lysates prepared and analyzed by MSD reagents as per manufacturer protocol. The final DMSO concentration of compound in the assay is 0.1%.
The IL-12 Induced pSTAT4 assay evaluates the inhibition of IL-12 induced STAT4 phophorylation mediated by Tyk2/JAK2 (heterodimeric complex).

JAK1 kinase domain = JAK1 kinase domain (Homo sapiens (Human), UniProt P23458); assay: JAK1 Radioactive Kinase Assay; format: biochemical; details: 10 μM compound; for inhibition at 10 µM: read-out: JAK1_IC50_RB (% INH_@_10 uM) at 10.0 uM [% INH]
Chain of JAK1 kinase domain (P23458 875-1153): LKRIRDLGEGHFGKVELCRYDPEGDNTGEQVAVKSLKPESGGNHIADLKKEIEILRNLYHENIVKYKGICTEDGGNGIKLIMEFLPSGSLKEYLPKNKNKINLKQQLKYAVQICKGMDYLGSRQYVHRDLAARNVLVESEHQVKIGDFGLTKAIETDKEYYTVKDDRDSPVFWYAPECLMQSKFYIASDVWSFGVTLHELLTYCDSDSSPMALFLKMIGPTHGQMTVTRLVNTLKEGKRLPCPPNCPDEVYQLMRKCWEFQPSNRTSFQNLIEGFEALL
Text: (§1) Similar assays were run to measure the percent inhibition at the JAK1 and JAK3 kinase domains.

[2] = biological target: human TYK2 (JH2domain-pseudokinase) (Homo sapiens (Human), UniProt P29597); assay: TYK2 JH2 Domain Binding Assay (KINOMEscan); details: read-out: hTYK2_JH2_Binding (Kd)
Chain of human TYK2 (JH2domain-pseudokinase) (P29597 556-888): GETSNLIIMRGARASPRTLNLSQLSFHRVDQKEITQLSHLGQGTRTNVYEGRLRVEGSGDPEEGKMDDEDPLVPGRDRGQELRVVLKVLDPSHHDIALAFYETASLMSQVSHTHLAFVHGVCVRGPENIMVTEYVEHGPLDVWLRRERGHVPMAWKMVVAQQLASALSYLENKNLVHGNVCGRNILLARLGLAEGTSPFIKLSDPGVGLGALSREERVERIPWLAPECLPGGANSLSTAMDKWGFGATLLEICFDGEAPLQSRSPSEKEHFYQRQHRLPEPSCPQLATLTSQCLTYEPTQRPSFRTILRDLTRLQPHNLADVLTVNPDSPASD
Method: Binding constants for compounds of the present invention against the JH2 domain were determined by the following protocol for a KINOMEscan® assay (DiscoveRx). A fusion protein of a partial length construct of human TYK2 (JH2domain-pseudokinase) (amino acids G556 to D888 based on reference sequence NP_003322.3) and the DNA binding domain of NFkB was expressed in transiently transfected HEK293 cells. From these HEK 293 cells, extracts were prepared in M-PER extraction buffer (Pierce) in the presence of Protease Inhibitor Cocktail Complete (Roche) and Phosphatase Inhibitor Cocktail Set II (Merck) per manufacturers' instructions. The TYK2 (JH2domain-pseudokinase) fusion protein was labeled with a chimeric double-stranded DNA tag containing the NFkB binding site (5′-[…]-3′) fused to an amplicon for qPCR readout, which was added directly to the expression extract (the final concentration of DNA-tag in the binding reaction is 0.1 nM).
The liganded beads were blocked with excess biotin and washed with blocking buffer (SeaBlock (Pierce), 1% BSA, 0.05% Tween 20, 1 mM DTT) to remove unbound ligand and to reduce nonspecific binding.
Extracts were used directly in binding assays without any enzyme purification steps at a ≥10,000-fold overall stock dilution (final DNA-tagged enzyme concentration <0.1 nM). Extracts were loaded with DNA-tag and diluted into the binding reaction in a two step process. First extracts were diluted 1:100 in 1× binding buffer (PBS/0.05% Tween 20/10 mM DTT/0.1% BSA/2 μg/ml sonicated salmon sperm DNA) containing 10 nM DNA-tag. This dilution was allowed to equilibrate at room temperature for 15 minutes and then subsequently diluted 1:100 in 1× binding buffer. […] Kds were determined using an 11-point 3-fold compound dilution series with three DMSO control points. […] The compounds were then diluted directly into the assays such that the final concentration of DMSO was 0.9%. All reactions performed in polypropylene 384-well plates. Each was a final volume of 0.02 mL. Assays were incubated with shaking for 1 hour at room temperature. Then the beads were pelleted and washed with wash buffer (1×PBS, 0.05% Tween 20) to remove displaced kinase and test compound. […] The qPCR protocol consisted of a 10 minute hot start at 95° C., followed by 35 cycles of 95° C. for 15 seconds, 60° C. for 1 minute.
The compounds were then diluted directly into the assays such that the final concentration of DMSO was 0.9%. […] Kd measurements were performed in duplicate.
Binding constants (Kd values) were calculated with a standard dose-response curve using the Hill equation: […]
The Hill Slope was set to −1.

JAK3 kinase domain = JAK3 kinase domain (Homo sapiens (Human), UniProt P52333); assay: JAK3 Radioactive Kinase Assay; format: biochemical; details: 10 μM compound; for inhibition at 10 µM: read-out: JAK3_IC50_RB (% INH_@_10 uM) at 10.0 uM [% INH]
Chain of JAK3 kinase domain (P52333 822-1111): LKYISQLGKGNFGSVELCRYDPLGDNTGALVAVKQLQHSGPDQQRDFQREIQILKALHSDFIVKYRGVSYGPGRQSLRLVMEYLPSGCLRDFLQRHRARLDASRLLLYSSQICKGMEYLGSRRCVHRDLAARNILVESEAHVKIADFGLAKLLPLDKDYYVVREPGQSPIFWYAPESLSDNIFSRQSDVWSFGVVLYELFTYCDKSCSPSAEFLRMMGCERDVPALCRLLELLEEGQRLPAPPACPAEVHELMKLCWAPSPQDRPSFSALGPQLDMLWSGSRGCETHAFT
Text: as §1

JAK2 kinase domain (JH1) = JAK2 kinase domain (JH1) (Homo sapiens (Human), UniProt O60674); assay: JAK2 Radioactive Kinase Assay; format: biochemical; details: 10 μM compound, ATP at 10 μM; for inhibition at 10 µM: read-out: JAK2_IC50_RB (% INH_@_10 uM) at 10.0 uM [% INH]
Chain of JAK2 kinase domain (JH1) (O60674 849-1124): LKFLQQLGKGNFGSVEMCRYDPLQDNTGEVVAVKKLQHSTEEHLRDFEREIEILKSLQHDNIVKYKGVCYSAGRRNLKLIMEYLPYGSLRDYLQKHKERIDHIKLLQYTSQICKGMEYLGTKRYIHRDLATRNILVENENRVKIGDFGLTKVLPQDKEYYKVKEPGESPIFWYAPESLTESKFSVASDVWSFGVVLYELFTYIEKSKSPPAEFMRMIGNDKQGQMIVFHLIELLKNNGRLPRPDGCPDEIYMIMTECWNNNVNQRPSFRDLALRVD
Method: (§2) The Tyk2 and JAK2 radioactive kinase assay measures the percent inhibition at the Tyk2 kinase domain (JH1) and the percent inhibition at the JAK2 kinase domain (JH1). Results of the assay are expressed as percent inhibition at 10 μM.

Tyk2 kinase domain (JH1) = Tyk2 kinase domain (JH1) (Homo sapiens (Human), UniProt P29597); assay: Tyk2 Radioactive Kinase Assay; format: biochemical; details: 10 μM compound, ATP at 10 μM; read-out: TYK2_IC50_RB (% INH_@_10 uM) at 10.0 uM [% INH]
Chain of Tyk2 kinase domain (JH1) (P29597 897-1176): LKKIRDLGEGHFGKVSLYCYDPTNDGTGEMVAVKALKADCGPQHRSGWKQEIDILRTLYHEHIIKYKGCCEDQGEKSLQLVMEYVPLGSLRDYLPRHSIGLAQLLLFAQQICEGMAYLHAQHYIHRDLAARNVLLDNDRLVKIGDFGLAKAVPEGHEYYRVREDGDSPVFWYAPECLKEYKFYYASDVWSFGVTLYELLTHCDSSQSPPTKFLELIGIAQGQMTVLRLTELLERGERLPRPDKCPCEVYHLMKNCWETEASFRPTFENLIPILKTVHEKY
Method: as §2

IC50 [1] [nM]	Kd [2] [nM]	inhibition at 10 µM (JAK1 kinase domain) [%]	inhibition at 10 µM (Tyk2 kinase domain (JH1)) [%]	inhibition at 10 µM (JAK3 kinase domain) [%]	inhibition at 10 µM (JAK2 kinase domain (JH1)) [%]	Structure (SMILES)	PBMC_IL-12-pSTAT4 (% Inhibition_Average_@0.05 uM) [%] ([1]; 0.05 μM compound, 1.7 ng/mL IL-12)	JAK1_IC50_RB (% INH_@_10 uM) at 10.0 uM [% INH] (JAK1 kinase domain)	JAK3_IC50_RB (% INH_@_10 uM) at 10.0 uM [% INH] (JAK3 kinase domain)	JAK2_IC50_RB (% INH_@_10 uM) at 10.0 uM [% INH] (JAK2 kinase domain (JH1))	inhibition at 0.05 µM ([1]; 0.05 μM compound) [%]
< 100	< 0.2					CNc1cc(-c2cn(C(C)C)c3ncccc23)nn2c(C(=O)N[C@H]3CC[C@H]3O)cnc12 (racemic) [Compound I-15, N-(2-hydroxycyclobutyl)-6-(1-isopropyl-1H-pyrrolo[2,3-b]pyridin-3-yl)-8-(methylamino)imidazo[1,2-b]pyridazine-3-carboxamide]	** (had a percent inhibition at 0.05 μM between 50 and 70)	A (had a percent inhibition at 10 μM lower than 50)	A (had a percent inhibition at 10 μM lower than 50)	A (had a percent inhibition at 10 μM lower than 50)	
	< 0.2	< 50	< 50	< 50	< 50	CNc1cc(Nc2cccn(-c3ccccn3)c2=O)nn2c(C(=O)NC3CC3)cnc12 [Compound I-4, N-cyclopropyl-8-(methylamino)-6-((2-oxo-2H-[1,2′-bipyridin]-3-yl)amino)imidazo[1,2-b]pyridazine-3-carboxamide]					< 50
< 100	< 0.2	< 50	< 50	< 50	< 50	CNc1cc(-c2cn(C(C)C)c3ncccc23)nn2c(C(=O)N[C@@H]3C[C@@H]3F)cnc12 [Compound I-5, N-((1R,2S)-2-fluorocyclopropyl)-6-(1-isopropyl-1H-pyrrolo[2,3-b]pyridin-3-yl)-8-(methylamino)imidazo[1,2-b]pyridazine-3-carboxamide]					70 to 90
< 100	< 0.2	< 50	< 50	< 50	< 50	CNc1cc(-c2cn(CCN3CCOCC3)c3ncccc23)nn2c(C(=O)N[C@@H]3C[C@@H]3F)cnc12 [Compound I-6, N-((1R,2S)-2-fluorocyclopropyl)-8-(methylamino)-6-(1-(2-morpholinoethyl)-1H-pyrrolo[2,3-b]pyridin-3-yl)imidazo[1,2-b]pyridazine-3-carboxamide]					< 50
	< 0.2	< 50	< 50	< 50	< 50	CNc1cc(-c2cn(C(C)C)c3ncccc23)nn2c(C(=O)N[C@@H]3CC[C@@H]3O)cnc12 [Compound I-7, N-((1R,2S)-2-hydroxycyclobutyl)-6-(1-isopropyl-1H-pyrrolo[2,3-b]pyridin-3-yl)-8-(methylamino)imidazo[1,2-b]pyridazine-3-carboxamide]					
	0.2 to 1	< 50		< 50	< 50	CNc1cc(-c2cn(CCN3CCOCC3)c3ncccc23)nn2c(C(=O)N[C@@H]3CC[C@@H]3O)cnc12 [Compound I-9, N-((1R,2S)-2-hydroxycyclobutyl)-8-(methylamino)-6-(1-(2-morpholinoethyl)-1H-pyrrol[2,3-b]pyridin-3-yl)imidazo[1,2-b]pyridazine-3-carboxamide]					
< 100	< 0.2	< 50	< 50	< 50	< 50	CNc1cc(-c2cn(C(C)C)c3ncccc23)nn2c(C(=O)N[C@H]3CC[C@H]3O)cnc12 [Compound I-10, N-((1S,2R)-2-hydroxycyclobutyl)-6-(1-isopropyl-1H-pyrrolo[2,3-b]pyridin-3-yl)-8-(methylamino)imidazo[1,2-b]pyridazine-3-carboxamide]					70 to 90
	< 0.2					CNc1cc(-c2cn(C3CCOCC3)c3ncccc23)nn2c(C(=O)N[C@H]3CC[C@H]3O)cnc12 [Compound I-11, N-((1S,2R)-2-hydroxycyclobutyl)-8-(methylamino)-6-(1-(tetrahydro-2H-pyran-4-yl)-1H-pyrrolo[2,3-b]pyridin-3-yl)imidazo[1,2-b]pyridazine-3-carboxamide]					70 to 90
	< 0.2	< 50	< 50	< 50	< 50	CNc1cc(-c2cn(CCN3CCOCC3)c3ncccc23)nn2c(C(=O)N[C@H]3CC[C@H]3O)cnc12 [Compound I-12, N-((1S,2R)-2-hydroxycyclobutyl)-8-(methylamino)-6-(1-(2-morpholinoethyl)-1H-pyrrolo[2,3-b]pyridin-3-yl)imidazo[1,2-b]pyridazine-3-carboxamide]					< 50
	< 0.2					CNc1cc(-c2cn(C(C)C)c3ncccc23)nn2c(C(=O)N[C@H]3COC[C@H]3O)cnc12 [Compound I-14, N-((3S,4S)-4-hydroxytetrahydrofuran-3-yl)-6-(1-isopropyl-1H-pyrrolo[2,3-b]pyridin-3-yl)-8-(methylamino)imidazo[1,2-b]pyridazine-3-carboxamide]					70 to 90
